Reference: patent US20240216369A1, “THE USE OF A SPLICING MODULATOR FOR A TREATMENT SLOWING PROGRESSION OF HUNTINGTON'S DISEASE” (Novartis AG, priority 2019, published 2024)

System: mutant HTT protein
Test: Repeat dose timecourse study in BacHD mice: HTT protein (Western blot)
Type: in vivo
Method: At 72 h 168 h, 240 h and 336 h (branaplam 24 mg/kg) after the last treatment (vehicle or 24 mg/kg branaplam for 1 week or 3 weeks), blood, CSF, and tissue samples were obtained for PK and PD analysis. To collect CSF, mice were placed in a rodent anesthesia induction chamber where they are exposed to 4-5% isoflurane in 100% oxygen carrier gas. Once an appropriate plane of anesthesia was achieved, they were moved to a nose cone so that maintenance levels of isoflurane (1-3%) could be delivered throughout the procedure. The dorsal aspect of their cervical and occipital region was surgically prepped to visualize the dura mater under a microscope. A glass micropipette attached to a micromanipulator was introduced to the cisterna magna via a puncture through the dura mater at a point where no vasculature was visualized, and CSF was allowed to flow into the micropipette via capillary action. After approximately 15-30 minutes, the micropipette was removed from the cisterna magna, the CSF sample was transferred into Eppendorf tubes, flash frozen in liquid nitrogen, and stored at −80° C.
Following CSF collection, mice were kept under anesthesia with isoflurane. Blood was obtained via submandibular vein bleeds and collected for RNA extraction (PD analysis) using RNAprotect Animal Blood Tubes, and plasma (PK analysis) using K2EDTA coated tubes. Cells were removed from plasma by centrifugation for 10 min at 2000×g at 4° C., and plasma samples were stored at −80° C. Following blood collection, mice were given a lethal dose of ketamine/xylazine ([…] of a 10 mg:1 mg), and perfused with 18 mL of 0.9% cold saline mixed with 2 mL of RNAlater (Ambion) solution for tissue collection. Liver, skeletal muscle, brain striatum, brain cortex, hemibrain and cerebellum samples were flash frozen in liquid nitrogen and stored at −80° C.
Snap-frozen mouse tissue samples were homogenized in RIPA buffer with protease and phosphatase inhibitor (Thermo Scientific) by Precellys at 6000 rpm for 40 sec. Supernatant was obtained by centrifugation for 20 min at 13,000 rpm at 4° C. Total protein concentration was quantified using the BCA protein Assay (Thermo Scientific). Samples were resolved in 3-8% Tris-Acetate protein gel under reducing condition. Proteins were transferred onto PVDF membrane (Millipore) and western blot analysis was performed using […] anti-Huntingtin antibody (Millipore #MAB2166), mouse anti-actin (Sigma, #A5316) and mouse anti-vinculin (Bio-Rad, #MCA465). Protein bands were quantified by Image J.
With a view to characterize the time course of HTT protein lowering and recovery and to better model the PK-PD relationship an extended time-course study was performed. BacHD mice received three weekly, oral doses of 24 mg/kg branaplam for three weeks. […]

[1] = 24 mg/kg, 3 weeks, time after last dose

CC1(C)CC(Oc2ccc(-c3ccc(-c4cn[nH]c4)cc3O)nn2)CC(C)(C)N1 [Compound 18, 5-(1H-pyrazol-4-yl)-2-(6-((2,2,6,6-tetramethylpiperidin-4-yl)oxy)pyridazin-3-yl)phenol]
maximal HTT protein lowering (relative to vehicle) (24 mg/kg oral three times weekly for 3 weeks, 72 h after last dose): approximately 45%
mutant HTT protein, 1 week versus 3 weeks of dosing (24 mg/kg oral, three times weekly): time-dependent lowering trend
return of HTT protein to baseline, cortex [1]: 72 to 168 h
return of HTT protein to baseline, striatum [1]: 72 to 336 h
